{"source": "patent US20240050414A1", "about": "“A COMPOSITION FOR USE IN THE TREATMENT OF INFERTILITY” (priority 2020, published 2024)", "key": {"sperm": {"tested_on": "sperm", "assay": "CASA sperm motility assessment", "assay_type": "cell-based, human", "conditions": "for maintaining percentage of motile and progressive sperm and VAP: 24 and 48 hour", "experimental": "FIG. 1 illustrates the evaluation of the cytoprotective and antioxidant compound ergothionine for ability to preserve sperm motility and progression, wherein sperm were separated from seminal fluid by density gradient centrifugation, washed in sperm wash media, and incubated in multipurpose handling medium for 48 hours in the presence of antioxidant, wherein path velocity (A) and sperm motility (B) were quantified by CASA, wherein for statistical analysis the log ratio to control was used as the dependent variable in ONEWAY ANOVA with posthoc testing by Dunnet's test (comparisons against a single ‘control’ value only), wherein N>12 per group;\nFIG. 4 illustrates ergothionine effectively maintains sperm motility and progression, wherein sperm were separated from seminal fluid by density gradient centrifugation, washed in sperm wash media and incubated in multipurpose handling medium in the presence of ergothionine at 1 mM for 24 hours (A-C) or 48 hours (D-F) or in the presence of ergothionine at 0.1 mM for 24 hours (G-I) or 48 hours (J-L), wherein sperm motility was analysed using CASA, wherein statistical analysis was performed using the Wilcoxon signed-rank, wherein N=26 per group for ergothionine at 1 mM and N=10 per group for 0.1 mM ergothionine;\nFIG. 8 illustrates a head-to-head comparison of the effect of a commercially available composition and the composition on sperm motility, wherein sperm were separated from seminal fluid by density gradient centrifugation, washed in sperm wash media and incubated in multipurpose handling medium in the presence of the commercially available composition (A,B) and the composition (C,D) for a period of 30 minutes, wherein sperm motility was analysed using CASA, wherein statistical analysis was performed using the Wilcoxon signed-rank test, wherein N=6 per group; and\nSperm motility assessments were carried out by Computer Assisted Sperm Analysis (CASA) using the Hamilton Thorne software and a Zeiss microscope, following WHO and manufacturers' guidelines. Briefly, semen samples were resuspended using Pasteur pipettes and diluted 1 in 3 in sperm wash media (Irvine Scientific, 9983). […] Motility assessment was evaluated by capturing at least 1000 sperm cell tracks per slide for unprocessed samples and 300 for processed samples. Total cell count (×10e6/ml), percentage immotile (IM), non-progressively motile (NP) and progressively motile (PR) sperm and average path velocity (VAP) for M and PM sperm was recorded for each sample as defined by World Health Organisation (WHO) laboratory manual for the examination and processing of human semen (fifth edition, 2010). […]"}, "8-OH-G on sperm DNA": {"tested_on": "8-OH-G on sperm DNA", "assay": "Flow cytometric assay of oxidative DNA damage (8-OHG) on sperm DNA", "assay_type": "cell-based, human", "experimental": "FIG. 3 illustrates evaluating the effect of ergothionine on sperm oxidative DNA damage, wherein sperm were separated from seminal fluid by density gradient centrifugation, washed in sperm wash media, and incubated in multipurpose handling medium for 48 hours in the presence of the cytoprotective and antioxidant compound ergothionine, wherein sperm were fixed in 4% PFA and stained with FITC labelled 8-OHG antibody (2 μg/ml) for 60 mins, washed and analysed by flow cytometry, wherein data were analyzed using FlowJo software and the mean fluorescent intensity (MFI) plotted, wherein statistical analysis was performed using the Wilcoxon signed-rank test, wherein N=6 per group;\nA total of 1×10e6 washed semen samples were fixed by re-suspending the washed sperm cell pellet in 500 μl of 4% paraformaldehyde (Chem Cruz, 281692), pH 7.2 and incubating for 20-30 minutes at RT. Fixed spermatozoa were centrifuged at 2,500×g for 1.5 minutes and washed twice in 500 μl 1% NGS-PBS buffer.\nMeasurement of oxidative DNA damage was determined using anti-DNA/RNA [15A3] […]\nROS and DNA damage are the most significant contributors to male infertility. […] In measuring this parameter, a flow cytometric assay was developed that could quantify the amount of 8-hydroxyguanine (8-OH-G) in the DNA of individual sperm by the use of a specific fluorescently-labelled monoclonal antibody (see FIG. 2)."}, "[1]": {"tested_on": "mouse oocytes with mouse sperm", "assay": "In vitro fertilisation and embryo development to blastocyst", "assay_type": "cell-based", "conditions": "Example 6, control PBS", "experimental": "To evaluate this, in vitro fertilisation studies were performed in the presence of the composition at a concentration of 10% and subsequent embryo development examined to blastocyst stage (see FIG. 7)."}, "rats [2]": {"tested_on": "rats", "conditions": "2 g/kg; cited from earlier work"}, "rats [3]": {"tested_on": "rats", "conditions": "fed 0.9% of diet for 13 weeks; cited from earlier work"}, "embryo development": {"tested_on": "embryo development", "conditions": "0.1 mM; cited from earlier work"}, "[4]": {"tested_on": "bovine embryo development", "conditions": "cited from earlier work"}, "sheep oocytes": {"tested_on": "sheep oocytes", "conditions": "cited from earlier work"}, "[5]": {"conditions": "cited from earlier work"}}}
{"molecule": "C[N+](C)(C)[C@@H](Cc1c[nH]c(=S)[nH]1)C(=O)[O-]", "note": "[ergothionine]", "values": [{"measurement": "effects on sperm motility and average path velocity (VAP)", "setting": "sperm; 48 hours in multipurpose handling medium, FIG. 1", "result": "sperm protective properties"}, {"measurement": "maintaining percentage of motile and progressive sperm and VAP", "setting": "sperm; ergothionine 0.1 mM, p values 0.04 for all parameters", "result": "effective at maintaining the percentage of motile and progressive sperm in addition to the speed of the movement (VAP)"}, {"measurement": "maintaining percentage of motile and progressive sperm and VAP", "setting": "sperm; ergothionine 1 mM, p values 0.002 for all parameters", "result": "effective at maintaining the percentage of motile and progressive sperm in addition to the speed of the movement (VAP)"}, {"measurement": "toxicity / effect on sperm motility and progression", "setting": "sperm; ergothionine 1 mM, 48 hour", "result": "effective and non-toxic, with no negative effect on sperm motility and progression"}, {"measurement": "protection against 8-OH-G formation on sperm DNA", "setting": "8-OH-G on sperm DNA; ergothionine 0.1 mM, 48 hour, FIG. 3a", "result": "ability to protect against 8-OH-G formation on sperm DNA"}, {"measurement": "cytoprotective effect against 8-OH-G formation (dose dependence)", "setting": "8-OH-G on sperm DNA; ergothionine 1 mM vs 0.1 mM, 48 hours, FIG. 3b", "result": "even greater cytoprotective effect"}, {"measurement": "effectiveness of exposed sperm in fertilisation versus PBS", "setting": "[1]", "result": "more effective that those exposed to PBS"}, {"measurement": "adverse effects in rats", "setting": "rats [2]", "result": "no adverse effects observed"}, {"measurement": "impact on fertility in rats", "setting": "rats [3]", "result": "no negative impact on fertility"}, {"measurement": "safety for embryo development", "setting": "embryo development", "result": "safe for embryo development"}, {"measurement": "concentrations beneficial for bovine embryo development", "setting": "[4]", "result": "up to 0.1 mM"}, {"measurement": "concentrations that negatively affect bovine embryo development", "setting": "[4]", "result": "> 500", "unit": "µM"}, {"measurement": "concentrations beneficial for in vitro maturation of sheep oocytes", "setting": "sheep oocytes", "result": "up to 10 mM"}, {"measurement": "water solubility", "setting": "[5]", "result": "water soluble"}]}
